Values of other authors as cited in publication PMC9228412, “Synthesis and Activity of Triazole-Adenosine Analogs as Protein Arginine Methyltransferase 5 Inhibitors” (Molecules, 2022).
Where two headings read alike, the source gives them in different places.

Tests used:
PRMT5 = conditions: cited from earlier work
[1] = tested on: 29 other human methyltransferases; parameters: method as in PMID 25893041; conditions: cited from earlier work
[2] = parameters: method as in PMID 25915199; conditions: cited from earlier work
BCR-ABL-driven CML = tested on: BCR-ABL-driven CML; parameters: method as in PMID 27643437; conditions: murine model of BCR-ABL-driven CML; cited from earlier work

Compound: CCNC(=O)NCCSC[C@H]1O[C@@H](n2cnc3c(N)ncnc32)[C@H](O)[C@@H]1O [DS-437]
- IC50 (PRMT5; dual PRMT5/PRMT7 inhibitor): 6000 nM
- activity towards 29 other human methyltransferases [1]: inactive

Compound: OC(COc1cccc(CNC2CCCC2)c1)CN1CCc2ccccc2C1 (stereo not drawn) [EPZ007345]
- potency (PRMT5): 326 nM
- in vitro clearance [2]: poor

Compound: Nc1nc2cc(CC[C@H]3C[C@@H](n4ccc5c(N)ncnc54)[C@H](O)[C@@H]3O)ccc2cc1Br [JNJ-64619178]
- IC50 (PRMT5; bisubstrate inhibitor): 0.15 nM

Compound: CCn1c2ccccc2c2cc(CNC3CCCc4ccccc43)ccc21 (stereo not drawn) [PJ-68]
- survival (BCR-ABL-driven CML): significant increase in survival
